Data published in the supplement of paper PMC8671470.

Legend:
Conditions in all cases: 72 h
HL-60 = assay: area under dose-response curve (viability, 1 nM-10 uM) (fraction (0-1)); higher = more sensitive
Method in brief: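 Four-parameter log-logistic fits in drc and PharmacoGx supplied area under the curve where it is given. Underlying viability came from CellTiter-Glo, normalised to DMSO and proteasome-inhibitor wells, with the proteasome inhibitor at 10 μM. HL-60 cells in RPMI 1640 plus 10% FBS had been rescreened against the full library at five tenfold concentrations of 1–10,000 nM, in duplicate on 384-well plates, with DMSO or 100 nM of one of three metabolic inhibitors, for 72 h at 37 °C, 5% CO2.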

KCL-22 = assay: cell viability (% survival relative to DMSO control, bortezomib = 0%); higher = less cytotoxic
Method in brief: (§1)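 Fifteen myeloid leukaemia cell lines (10 AML, 5 CML) were seeded at a density titrated to the linear growth range. They went into 384-well plates with compounds pre-printed at 1, 10, 100, 1000 or 10000 nM in duplicate. After 72 h at 37 °C with 5% CO2, viability was read by CellTiter-Glo luminescence. Values are percent survival, with vehicle set to 100% and a 10 µM positive control to 0%, averaged over the duplicates.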

HEL = assay: as above
Method in brief: as §1

[1] = test system: myeloid leukemia patient primary cells Pat.3; assay: cell viability (% survival relative to DMSO control); higher = less cytotoxic
Method in brief: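 Thawed, Ficoll-purified mononuclear cells from AML or CML patients in RPMI 1640 with 10% FBS were seeded at 10,000 cells/well on 384-well plates pre-printed with 70 compounds at five tenfold concentrations, 1–10,000 nM, in duplicate, for 72 h. Viability was read by CellTiter-Glo and normalised to DMSO and 10 μM proteasome-inhibitor wells. Where given, area under the curve came from four-parameter log-logistic fits (drc, PharmacoGx R packages).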

[2] = co-treatment: GSK2194069 100 nM
[3] = co-treatment: pictilisib 100 nM

## Sc1ncnc2nc[nH]c12 [6-mercaptopurine]
HL-60; co-treatment: AZD3965 100 nM
  area under dose-response curve: 0.0762
HL-60; co-treatment: DMSO vehicle
  area under dose-response curve: 0.0564
HL-60; [2]
  area under dose-response curve: 0.0946
HL-60; [3]
  area under dose-response curve: 0.0609
KCL-22; 1 nM
  cell viability: 92.6%
KCL-22; 10 nM
  cell viability: 89.7%
KCL-22; 100 nM
  cell viability: 105%
KCL-22; 1000 nM
  cell viability: 52%
KCL-22; 10000 nM
  cell viability: 8.81%
HEL; 1 nM
  cell viability: 96.5%
HEL; 10 nM
  cell viability: 98.2%
HEL; 100 nM
  cell viability: 95.6%
HEL; 1000 nM
  cell viability: 70.6%
HEL; 10000 nM
  cell viability: 7.42%
[1]; 1 nM
  cell viability: 94.8%
[1]; 10 nM
  cell viability: 97.6%
[1]; 100 nM
  cell viability: 44.2%
[1]; 1000 nM
  cell viability: 35.1%
[1]; 10000 nM
  cell viability: 16.3%

## Cc1noc2c1-c1ccccc1C(c1ccc(Cl)cc1)=N[C@H]2CC(N)=O [CPI-0610]
HL-60; co-treatment: AZD3965 100 nM
  area under dose-response curve: 0.21
HL-60; co-treatment: DMSO vehicle
  area under dose-response curve: 0.157
HL-60; [2]
  area under dose-response curve: 0.168
HL-60; [3]
  area under dose-response curve: 0.289
KCL-22; 1 nM
  cell viability: 123%
KCL-22; 10 nM
  cell viability: 94.6%
KCL-22; 100 nM
  cell viability: 91.3%
KCL-22; 1000 nM
  cell viability: 49%
KCL-22; 10000 nM
  cell viability: 27.7%
HEL; 1 nM
  cell viability: 103%
HEL; 10 nM
  cell viability: 98.5%
HEL; 100 nM
  cell viability: 114%
HEL; 1000 nM
  cell viability: 74.5%
HEL; 10000 nM
  cell viability: 18.5%
[1]; 1 nM
  cell viability: > 100%
[1]; 10 nM
  cell viability: 79.3%
[1]; 100 nM
  cell viability: 68.4%
[1]; 1000 nM
  cell viability: 22.7%
[1]; 10000 nM
  cell viability: 15.6%

## Nc1ccn([C@@H]2O[C@H](CO)[C@@H](O)[C@@H]2O)c(=O)n1 [Cytarabine]
HL-60; co-treatment: AZD3965 100 nM
  area under dose-response curve: 0.242
HL-60; co-treatment: DMSO vehicle
  area under dose-response curve: 0.214
HL-60; [2]
  area under dose-response curve: 0.216
HL-60; [3]
  area under dose-response curve: 0.329
KCL-22; 1 nM
  cell viability: 108%
KCL-22; 10 nM
  cell viability: 91.6%
KCL-22; 100 nM
  cell viability: 26.6%
KCL-22; 1000 nM
  cell viability: 14.2%
KCL-22; 10000 nM
  cell viability: 9.51%
HEL; 1 nM
  cell viability: 104%
HEL; 10 nM
  cell viability: 95.2%
HEL; 100 nM
  cell viability: 19.6%
HEL; 1000 nM
  cell viability: -0.409%
HEL; 10000 nM
  cell viability: 1.24%
[1]; 1 nM
  cell viability: > 100%
[1]; 10 nM
  cell viability: 39.5%
[1]; 100 nM
  cell viability: 46.5%
[1]; 1000 nM
  cell viability: 11.6%
[1]; 10000 nM
  cell viability: 5%

## CCN(CC)CCN(Cc1ccc(-c2ccc(C(F)(F)F)cc2)cc1)C(=O)Cn1c(SCc2ccc(F)cc2)nc(=O)c2c1CCC2 [Darapladib]
HL-60; co-treatment: AZD3965 100 nM
  area under dose-response curve: 0.144
HL-60; co-treatment: DMSO vehicle
  area under dose-response curve: 0.14
HL-60; [2]
  area under dose-response curve: 0.167
HL-60; [3]
  area under dose-response curve: 0.134
KCL-22; 1 nM
  cell viability: 112%
KCL-22; 10 nM
  cell viability: 113%
KCL-22; 100 nM
  cell viability: 114%
KCL-22; 1000 nM
  cell viability: 86.3%
KCL-22; 10000 nM
  cell viability: -0.547%
HEL; 1 nM
  cell viability: 99.5%
HEL; 10 nM
  cell viability: 103%
HEL; 100 nM
  cell viability: 105%
HEL; 1000 nM
  cell viability: 91.1%
HEL; 10000 nM
  cell viability: -0.527%
[1]; 1 nM
  cell viability: 81.4%
[1]; 10 nM
  cell viability: 90.8%
[1]; 100 nM
  cell viability: 70.5%
[1]; 1000 nM
  cell viability: 54.4%
[1]; 10000 nM
  cell viability: < 0%

## CC12CCC(O)CC1CCC1C2CCC2(C)C(C3=CC(=O)OC3)CCC12O (centres undefined) [Digitoxigenin]
HL-60; co-treatment: AZD3965 100 nM
  area under dose-response curve: 0.372
HL-60; co-treatment: DMSO vehicle
  area under dose-response curve: 0.376
HL-60; [2]
  area under dose-response curve: 0.386
HL-60; [3]
  area under dose-response curve: 0.374
KCL-22; 1 nM
  cell viability: 94.5%
KCL-22; 10 nM
  cell viability: 102%
KCL-22; 100 nM
  cell viability: 98.9%
KCL-22; 1000 nM
  cell viability: 3.66%
KCL-22; 10000 nM
  cell viability: -0.896%
HEL; 1 nM
  cell viability: 102%
HEL; 10 nM
  cell viability: 99.1%
HEL; 100 nM
  cell viability: 103%
HEL; 1000 nM
  cell viability: 1.26%
HEL; 10000 nM
  cell viability: -1.18%
[1]; 1 nM
  cell viability: > 100%
[1]; 10 nM
  cell viability: 90%
[1]; 100 nM
  cell viability: 16.6%
[1]; 1000 nM
  cell viability: 0.964%
[1]; 10000 nM
  cell viability: 1.87%

## C[C@H]1O[C@@H](O[C@H]2[C@@H](O)C[C@H](O[C@H]3[C@@H](O)C[C@H](O[C@H]4CC[C@@]5(C)[C@H](CC[C@@H]6[C@@H]5C[C@@H](O)[C@]5(C)[C@@H](C7=CC(=O)OC7)CC[C@]65O)C4)O[C@@H]3C)O[C@@H]2C)C[C@H](O)[C@@H]1O [Digoxin]
HL-60; co-treatment: AZD3965 100 nM
  area under dose-response curve: 0.459
HL-60; co-treatment: DMSO vehicle
  area under dose-response curve: 0.479
HL-60; [2]
  area under dose-response curve: 0.423
HL-60; [3]
  area under dose-response curve: 0.486
KCL-22; 1 nM
  cell viability: 99.1%
KCL-22; 10 nM
  cell viability: 95.3%
KCL-22; 100 nM
  cell viability: 25%
KCL-22; 1000 nM
  cell viability: 0.788%
KCL-22; 10000 nM
  cell viability: 0.361%
HEL; 1 nM
  cell viability: 97.3%
HEL; 10 nM
  cell viability: 92.9%
HEL; 100 nM
  cell viability: 49%
HEL; 1000 nM
  cell viability: -0.296%
HEL; 10000 nM
  cell viability: -0.0735%
[1]; 1 nM
  cell viability: 94.1%
[1]; 10 nM
  cell viability: 81.3%
[1]; 100 nM
  cell viability: 11.5%
[1]; 1000 nM
  cell viability: 2.91%
[1]; 10000 nM
  cell viability: 1.13%

## Clc1ccc(COC(Cn2ccnc2)c2ccc(Cl)cc2Cl)cc1 (centres undefined) [Econazole]
KCL-22; 1 nM
  cell viability: 116%
KCL-22; 10 nM
  cell viability: 91.2%
KCL-22; 100 nM
  cell viability: 96.9%
KCL-22; 1000 nM
  cell viability: 84.2%
KCL-22; 10000 nM
  cell viability: 54.8%
HEL; 1 nM
  cell viability: 106%
HEL; 10 nM
  cell viability: 90.4%
HEL; 100 nM
  cell viability: 99.1%
HEL; 1000 nM
  cell viability: 99%
HEL; 10000 nM
  cell viability: 77.3%
[1]; 1 nM
  cell viability: 74.2%
[1]; 10 nM
  cell viability: 89.5%
[1]; 100 nM
  cell viability: 93%
[1]; 1000 nM
  cell viability: 70.1%
[1]; 10000 nM
  cell viability: 1.03%
